{"source": "PubChem BioAssay (NCI)", "experiment_in_all_cases": "growth of human tumour cells (NCI), 48 h", "key": {"[1]": {"tested_on": "HOP-62 NSCLC"}, "[2]": {"tested_on": "SW-620 colon"}, "[3]": {"tested_on": "SNB-19 CNS"}, "[4]": {"tested_on": "HOP-92 NSCLC"}, "[5]": {"tested_on": "OVCAR-3 ovarian"}, "[6]": {"tested_on": "U251 CNS"}, "[7]": {"tested_on": "SNB-75 CNS"}, "[8]": {"tested_on": "HL-60(TB) leukemia"}, "[9]": {"tested_on": "NCI-H23 lung"}, "[10]": {"tested_on": "DU-145 prostate"}, "[11]": {"tested_on": "LOX IMVI melanoma"}, "[12]": {"tested_on": "SF-539 CNS"}, "[13]": {"tested_on": "HCT-116 colon"}, "[14]": {"tested_on": "SN12C renal"}, "[15]": {"tested_on": "MALME-3M melanoma"}, "[16]": {"tested_on": "786-0 renal"}, "[17]": {"tested_on": "RXF 393 renal"}, "[18]": {"tested_on": "OVCAR-5 ovarian"}, "[19]": {"tested_on": "UO-31 renal"}, "[20]": {"tested_on": "HCT-15 colon"}, "[21]": {"tested_on": "SK-MEL-2 melanoma"}, "[22]": {"tested_on": "NCI-H460 lung"}, "[23]": {"tested_on": "SF-268 CNS"}, "[24]": {"tested_on": "SK-OV-3 ovarian"}, "[25]": {"tested_on": "CAKI-1 renal"}, "[26]": {"tested_on": "MOLT-4 leukemia"}, "[27]": {"tested_on": "COLO 205 colon"}, "[28]": {"tested_on": "SF-295 CNS"}, "[29]": {"tested_on": "A549 NSCLC"}, "[30]": {"tested_on": "OVCAR-4 ovarian"}, "[31]": {"tested_on": "HCC-2998 colon"}, "[32]": {"tested_on": "KM12 colon"}, "[33]": {"tested_on": "HT29 colon"}, "[34]": {"tested_on": "UACC-257 melanoma"}, "[35]": {"tested_on": "SR leukemia"}, "[36]": {"tested_on": "HS 578T breast"}, "[37]": {"tested_on": "SK-MEL-28 melanoma"}, "[38]": {"tested_on": "MDA-MB-231 breast"}, "[39]": {"tested_on": "OVCAR-8 ovarian"}, "[40]": {"tested_on": "NCI/ADR-RES ovarian"}, "[41]": {"tested_on": "MDA-N"}, "[42]": {"tested_on": "TK-10 renal"}, "[43]": {"tested_on": "MCF7 breast"}, "[44]": {"tested_on": "CCRF-CEM leukemia"}, "[45]": {"tested_on": "K-562 leukemia"}, "[46]": {"tested_on": "IGROV1 ovarian"}, "[47]": {"tested_on": "ACHN renal"}, "[48]": {"tested_on": "PC-3 prostate"}, "[49]": {"tested_on": "NCI-H226 lung"}, "[50]": {"tested_on": "A498 renal"}, "[51]": {"tested_on": "T-47D breast"}, "[52]": {"tested_on": "M14 melanoma"}, "[53]": {"tested_on": "SK-MEL-5 melanoma"}, "[54]": {"tested_on": "NCI-H522 lung"}, "[55]": {"tested_on": "EKVX NSCLC"}, "[56]": {"tested_on": "MDA-MB-435"}, "[57]": {"tested_on": "UACC-62 melanoma"}, "[58]": {"tested_on": "BT-549 breast"}}, "note": "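Where inhibition never reached the appropriate level, the endpoint shown equals the highest concentration tested. Otherwise, values were interpolated linearly from a five-concentration, 48-hour dose response in 96-well plates. TGI denotes the concentration required for complete inhibition of growth.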", "data": [{"compound": "C/C(=N\\O)c1ccc(OCc2cc(C(F)(F)F)cc(C(F)(F)F)c2)cc1", "values": [{"measurement": "TGI", "setting": "[1]", "result": "> 100", "unit": "µM"}, {"measurement": "TGI", "setting": "[2]", "result": "> 100000", "unit": "nM"}, {"measurement": "TGI", "setting": "[3]", "result": "> 100", "unit": "µM"}, {"measurement": "TGI", "setting": "[4]", "result": "> 100", "unit": "µM"}, {"measurement": "TGI", "setting": "[5]", "result": "> 100", "unit": "µM"}, {"measurement": "TGI", "setting": "[6]", "result": "> 100", "unit": "µM"}, {"measurement": "TGI", "setting": "[7]", "result": "> 100000", "unit": "nM"}, {"measurement": "TGI", "setting": "[8]", "result": 25.5, "unit": "µM"}, {"measurement": "TGI", "setting": "[9]", "result": "> 100", "unit": "µM"}, {"measurement": "TGI", "setting": "[10]", "result": "> 100000", "unit": "nM"}, {"measurement": "TGI", "setting": "[11]", "result": "> 100", "unit": "µM"}, {"measurement": "TGI", "setting": "[12]", "result": "> 100", "unit": "µM"}, {"measurement": "TGI", "setting": "[13]", "result": "> 100", "unit": "µM"}, {"measurement": "TGI", "setting": "[14]", "result": "> 100", "unit": "µM"}, {"measurement": "TGI", "setting": "[15]", "result": "> 100", "unit": "µM"}, {"measurement": "TGI", "setting": "[16]", "result": "> 100", "unit": "µM"}, {"measurement": "TGI", "setting": "[17]", "result": 72.4, "unit": "µM"}, {"measurement": "TGI", "setting": "[18]", "result": "> 100000", "unit": "nM"}, {"measurement": "TGI", "setting": "[19]", "result": "> 100", "unit": "µM"}, {"measurement": "TGI", "setting": "[20]", "result": "> 100000", "unit": "nM"}, {"measurement": "TGI", "setting": "[21]", "result": "> 100", "unit": "µM"}, {"measurement": "TGI", "setting": "[22]", "result": 69.1, "unit": "µM"}, {"measurement": "TGI", "setting": "[23]", "result": "> 100", "unit": "µM"}, {"measurement": "TGI", "setting": "[24]", "result": "> 100000", "unit": "nM"}, {"measurement": "TGI", "setting": "[25]", "result": "> 100", "unit": "µM"}, {"measurement": "TGI", "setting": "[26]", "result": 68.5, "unit": "µM"}, {"measurement": "TGI", "setting": "[27]", "result": "> 100000", "unit": "nM"}, {"measurement": "TGI", "setting": "[28]", "result": "> 100000", "unit": "nM"}, {"measurement": "TGI", "setting": "[29]", "result": "> 100", "unit": "µM"}, {"measurement": "TGI", "setting": "[30]", "result": "> 100", "unit": "µM"}, {"measurement": "TGI", "setting": "[31]", "result": 98.4, "unit": "µM"}, {"measurement": "TGI", "setting": "[32]", "result": 43.9, "unit": "µM"}, {"measurement": "TGI", "setting": "[33]", "result": "> 100", "unit": "µM"}, {"measurement": "TGI", "setting": "[34]", "result": "> 100", "unit": "µM"}, {"measurement": "TGI", "setting": "[35]", "result": "> 100", "unit": "µM"}, {"measurement": "TGI", "setting": "[36]", "result": "> 100", "unit": "µM"}, {"measurement": "TGI", "setting": "[37]", "result": "> 100", "unit": "µM"}, {"measurement": "TGI", "setting": "[38]", "result": "> 100000", "unit": "nM"}, {"measurement": "TGI", "setting": "[39]", "result": "> 100", "unit": "µM"}, {"measurement": "TGI", "setting": "[40]", "result": "> 100000", "unit": "nM"}, {"measurement": "TGI", "setting": "[41]", "result": "> 100", "unit": "µM"}, {"measurement": "TGI", "setting": "[42]", "result": "> 100", "unit": "µM"}, {"measurement": "TGI", "setting": "[43]", "result": "> 100000", "unit": "nM"}, {"measurement": "TGI", "setting": "[44]", "result": 89.3, "unit": "µM"}, {"measurement": "TGI", "setting": "[45]", "result": "> 100", "unit": "µM"}, {"measurement": "TGI", "setting": "[46]", "result": "> 100", "unit": "µM"}, {"measurement": "TGI", "setting": "[47]", "result": "> 100", "unit": "µM"}, {"measurement": "TGI", "setting": "[48]", "result": "> 100000", "unit": "nM"}, {"measurement": "TGI", "setting": "[49]", "result": "> 100000", "unit": "nM"}, {"measurement": "TGI", "setting": "[50]", "result": "> 100", "unit": "µM"}, {"measurement": "TGI", "setting": "[51]", "result": "> 100000", "unit": "nM"}, {"measurement": "TGI", "setting": "[52]", "result": "> 100", "unit": "µM"}, {"measurement": "TGI", "setting": "[53]", "result": "> 100", "unit": "µM"}, {"measurement": "TGI", "setting": "[54]", "result": "> 100", "unit": "µM"}, {"measurement": "TGI", "setting": "[55]", "result": "> 100000", "unit": "nM"}, {"measurement": "TGI", "setting": "[56]", "result": "> 100", "unit": "µM"}]}, {"compound": "COc1cc(OCCN(C)C)c2[nH]c(C(=O)N3CC(CCl)c4c3cc(N)c3ccccc43)cc2c1", "note": "(configuration not stated)", "values": [{"measurement": "TGI", "setting": "[1]", "result": "< 0.01", "unit": "µM"}, {"measurement": "TGI", "setting": "[2]", "result": 265, "unit": "nM"}, {"measurement": "TGI", "setting": "[4]", "result": "< 0.01", "unit": "µM"}, {"measurement": "TGI", "setting": "[5]", "result": "< 0.01", "unit": "µM"}, {"measurement": "TGI", "setting": "[7]", "result": 20, "unit": "nM"}, {"measurement": "TGI", "setting": "[9]", "result": "< 0.01", "unit": "µM"}, {"measurement": "TGI", "setting": "[10]", "result": 1080, "unit": "nM"}, {"measurement": "TGI", "setting": "[11]", "result": "< 0.01", "unit": "µM"}, {"measurement": "TGI", "setting": "[57]", "result": "< 10", "unit": "nM"}, {"measurement": "TGI", "setting": "[16]", "result": "< 0.01", "unit": "µM"}, {"measurement": "TGI", "setting": "[17]", "result": "< 0.01", "unit": "µM"}, {"measurement": "TGI", "setting": "[18]", "result": 213, "unit": "nM"}, {"measurement": "TGI", "setting": "[20]", "result": 1320, "unit": "nM"}, {"measurement": "TGI", "setting": "[21]", "result": "< 0.01", "unit": "µM"}, {"measurement": "TGI", "setting": "[24]", "result": 1320, "unit": "nM"}, {"measurement": "TGI", "setting": "[58]", "result": 379, "unit": "nM"}, {"measurement": "TGI", "setting": "[27]", "result": 10.2, "unit": "nM"}, {"measurement": "TGI", "setting": "[28]", "result": 17, "unit": "nM"}, {"measurement": "TGI", "setting": "[31]", "result": "< 0.01", "unit": "µM"}, {"measurement": "TGI", "setting": "[38]", "result": 1170, "unit": "nM"}, {"measurement": "TGI", "setting": "[40]", "result": 49.8, "unit": "nM"}, {"measurement": "TGI", "setting": "[41]", "result": "< 0.01", "unit": "µM"}, {"measurement": "TGI", "setting": "[43]", "result": 11, "unit": "nM"}, {"measurement": "TGI", "setting": "[44]", "result": "> 100", "unit": "µM"}, {"measurement": "TGI", "setting": "[48]", "result": 736, "unit": "nM"}, {"measurement": "TGI", "setting": "[49]", "result": 31.1, "unit": "nM"}, {"measurement": "TGI", "setting": "[50]", "result": "< 0.01", "unit": "µM"}, {"measurement": "TGI", "setting": "[51]", "result": 1790, "unit": "nM"}, {"measurement": "TGI", "setting": "[52]", "result": "< 0.01", "unit": "µM"}, {"measurement": "TGI", "setting": "[54]", "result": "< 0.01", "unit": "µM"}, {"measurement": "TGI", "setting": "[55]", "result": 52.1, "unit": "nM"}]}]}
